In PMC5218480 (PLoS ONE, 2017):

System: MV-4-11 cells
Experiment: Gene expression microarray analysis (Affymetrix PrimeView) and GSEA
Type: cell-based, human
Parameters: RFU PODN (11730768_x_at) / Fold change /veh PODN (11730768_x_at) / RFU LINC00158 (11744669_a_at) / Fold change /veh LINC00158 (11744669_a_at) / RFU DUSP10 (11751237_a_at) / Fold change /veh DUSP10 (11751237_a_at) / RFU ID3 (11757404_x_at) / Fold change /veh ID3 (11757404_x_at) / RFU PLEKHG5 (11737974_s_at) / Fold change /veh PLEKHG5 (11737974_s_at) / RFU LRRC4B (11730491_at) / Fold change /veh LRRC4B (11730491_at) / RFU GIMAP4 (11747438_a_at) / Fold change /veh GIMAP4 (11747438_a_at) / RFU KRT8 (11758183_x_at) / Fold change /veh KRT8 (11758183_x_at) / RFU CNN1 (11734310_a_at) / Fold change /veh CNN1 (11734310_a_at) / RFU VPS37D (11726825_at) / Fold change /veh VPS37D (11726825_at) / RFU C10orf10 (11716522_x_at) / Fold change /veh C10orf10 (11716522_x_at) / RFU KIR2DL2 /// KIR2DL4 /// KIR2DL5A /// KIR2DL5B /// KIR2DS1 /// KIR2DS2 /// KIR2DS3 /// KIR2DS4 /// KIR3DL3 /// KIR3DL3 /// KIR3DS1 (11738374_at) / Fold change /veh KIR2DL2 /// KIR2DL4 /// KIR2DL5A /// KIR2DL5B /// KIR2DS1 /// KIR2DS2 /// KIR2DS3 /// KIR2DS4 /// KIR3DL3 /// KIR3DL3 /// KIR3DS1 (11738374_at) / RFU C1QL1 (11718748_at) / Fold change /veh C1QL1 (11718748_at) / RFU TMPRSS4 (11747572_a_at) / Fold change /veh TMPRSS4 (11747572_a_at) / RFU HAMP (11756126_x_at) / Fold change /veh HAMP (11756126_x_at) / RFU RNFT2 (11725882_a_at) / Fold change /veh RNFT2 (11725882_a_at) / RFU NR4A2 (11747474_a_at) / Fold change /veh NR4A2 (11747474_a_at) / RFU ABCC12 (11746883_a_at) / Fold change /veh ABCC12 (11746883_a_at) / RFU TMEM136 (11760407_x_at) / Fold change /veh TMEM136 (11760407_x_at) / RFU CLDN22 /// WWC2 (11732394_at) / Fold change /veh CLDN22 /// WWC2 (11732394_at) / RFU HLA-DPB1 (11760878_x_at) / Fold change /veh HLA-DPB1 (11760878_x_at) / RFU SPINT1 (11716480_a_at) / Fold change /veh SPINT1 (11716480_a_at) / RFU GAP43 (11754022_s_at) / Fold change /veh GAP43 (11754022_s_at) / RFU A4GNT (11735810_at) / Fold change /veh A4GNT (11735810_at) / RFU PRB3 (11715151_x_at) / Fold change /veh PRB3 (11715151_x_at) / RFU TUBB4B (11761932_at) / Fold change /veh TUBB4B (11761932_at) / RFU CAPN14 (11732068_a_at) / Fold change /veh CAPN14 (11732068_a_at) / RFU TMCC2 (11721928_a_at) / Fold change /veh TMCC2 (11721928_a_at) / RFU IRGQ (11745062_a_at) / Fold change /veh IRGQ (11745062_a_at) / RFU FAM174B (11720279_a_at) / Fold change /veh FAM174B (11720279_a_at) / RFU TMPRSS4 (11748680_a_at) / Fold change /veh TMPRSS4 (11748680_a_at) / RFU FAM212B (11763350_a_at) / Fold change /veh FAM212B (11763350_a_at) / RFU PLEKHG5 (11743358_a_at) / Fold change /veh PLEKHG5 (11743358_a_at) / RFU ZSCAN30 (11745921_a_at) / Fold change /veh ZSCAN30 (11745921_a_at) / RFU CMKLR1 (11741424_a_at) / Fold change /veh CMKLR1 (11741424_a_at) / RFU LOC101060620 /// MAPK8IP1 (11723275_at) / Fold change /veh LOC101060620 /// MAPK8IP1 (11723275_at) / RFU SPTSSB (11747773_x_at) / Fold change /veh SPTSSB (11747773_x_at) / RFU PRSS12 (11739890_at) / Fold change /veh PRSS12 (11739890_at) / RFU BIN1 (11741810_x_at) / Fold change /veh BIN1 (11741810_x_at) / RFU WNT11 (11732464_a_at) / Fold change /veh WNT11 (11732464_a_at) / RFU C10orf10 (11716521_a_at) / Fold change /veh C10orf10 (11716521_a_at) / RFU C5orf56 (11738089_at) / Fold change /veh C5orf56 (11738089_at) / RFU CYB561 (11721691_x_at) / Fold change /veh CYB561 (11721691_x_at) / RFU ANKRD19P (11752326_a_at) / Fold change /veh ANKRD19P (11752326_a_at) / RFU OR2T12 /// OR2T33 /// OR2T8 (11738714_s_at) / Fold change /veh OR2T12 /// OR2T33 /// OR2T8 (11738714_s_at) / RFU VCAN (11748164_a_at) / Fold change /veh VCAN (11748164_a_at) / RFU JSRP1 (11732532_at) / Fold change /veh JSRP1 (11732532_at) / RFU KRTAP10-11 (11738290_x_at) / Fold change /veh KRTAP10-11 (11738290_x_at) / RFU MYO3A (11730013_a_at) / Fold change /veh MYO3A (11730013_a_at) / RFU EBF3 (11725865_a_at) / Fold change /veh EBF3 (11725865_a_at) / RFU CAMK2N1 (11719241_x_at) / Fold change /veh CAMK2N1 (11719241_x_at) / RFU C5orf56 (11738088_a_at) / Fold change /veh C5orf56 (11738088_a_at) / RFU OLFML3 (11715873_a_at) / Fold change /veh OLFML3 (11715873_a_at) / RFU LOC100653217 /// NTM (11731650_a_at) / Fold change /veh LOC100653217 /// NTM (11731650_a_at) / RFU MAPK11 (11762145_a_at) / Fold change /veh MAPK11 (11762145_a_at) / RFU FIZ1 (11724087_x_at) / Fold change /veh FIZ1 (11724087_x_at) / RFU OASL (11726364_x_at) / Fold change /veh OASL (11726364_x_at) / RFU SOX15 (11748057_x_at) / Fold change /veh SOX15 (11748057_x_at) / RFU CD79A (11719716_a_at) / Fold change /veh CD79A (11719716_a_at) / RFU HIST1H1D (11736915_at) / Fold change /veh HIST1H1D (11736915_at) / RFU CASKIN2 (11723855_a_at) / Fold change /veh CASKIN2 (11723855_a_at) / RFU LOC730098 (11760151_x_at) / Fold change /veh LOC730098 (11760151_x_at) / RFU OR4N2 (11742367_at) / Fold change /veh OR4N2 (11742367_at) / RFU PRRT2 (11749266_a_at) / Fold change /veh PRRT2 (11749266_a_at) / RFU SNX32 (11753110_a_at) / Fold change /veh SNX32 (11753110_a_at) / RFU CDHR5 (11726645_a_at) / Fold change /veh CDHR5 (11726645_a_at) / RFU RCAN1 (11760418_a_at) / Fold change /veh RCAN1 (11760418_a_at) / RFU FAM167A (11723789_a_at) / Fold change /veh FAM167A (11723789_a_at) / RFU FAM26E (11764081_at) / Fold change /veh FAM26E (11764081_at) / RFU ISYNA1 (11749810_s_at) / Fold change /veh ISYNA1 (11749810_s_at) / RFU ACY1 (11761880_at) / Fold change /veh ACY1 (11761880_at) / RFU 11764098_at / Fold change /veh 11764098_at / RFU SAMD14 (11745864_x_at) / Fold change /veh SAMD14 (11745864_x_at) / RFU NPB (11741838_a_at) / Fold change /veh NPB (11741838_a_at) / RFU TMPRSS6 (11731388_a_at) / Fold change /veh TMPRSS6 (11731388_a_at) / RFU KRTAP10-2 (11738614_at) / Fold change /veh KRTAP10-2 (11738614_at) / RFU ARHGAP8 /// PRR5-ARHGAP8 (11727945_x_at) / Fold change /veh ARHGAP8 /// PRR5-ARHGAP8 (11727945_x_at) / RFU KRTAP5-7 /// NADSYN1 (11734609_at) / Fold change /veh KRTAP5-7 /// NADSYN1 (11734609_at) / RFU RASL12 (11751679_a_at) / Fold change /veh RASL12 (11751679_a_at) / RFU CDKN2B (11736163_a_at) / Fold change /veh CDKN2B (11736163_a_at) / RFU PRF1 (11729649_at) / Fold change /veh PRF1 (11729649_at) / RFU, ZNF638 /// ZNF638-IT1 / Fold change vs veh, ZNF638 /// ZNF638-IT1 / RFU, PANK3 / Fold change vs veh, PANK3 / RFU, SH3YL1 / Fold change vs veh, SH3YL1 / RFU, ZEB2 / Fold change vs veh, ZEB2 / RFU, NRIP1 / Fold change vs veh, NRIP1 / RFU, PTTG1IP / Fold change vs veh, PTTG1IP / RFU, CAPN2 / Fold change vs veh, CAPN2 / RFU, MED14 / Fold change vs veh, MED14 / RFU, SNORA58 / Fold change vs veh, SNORA58 / RFU, C1orf63 / Fold change vs veh, C1orf63 / RFU, LRRFIP1 / Fold change vs veh, LRRFIP1 / RFU, NDUFAF7 / Fold change vs veh, NDUFAF7 / RFU, SLC12A2 / Fold change vs veh, SLC12A2 / RFU, IBTK / Fold change vs veh, IBTK / RFU, ESF1 / Fold change vs veh, ESF1 / Fold change vs veh, TMEM50B / RFU, TAOK1 / Fold change vs veh, TAOK1 / RFU, ACBD3 / Fold change vs veh, ACBD3 / RFU, TMA16 / Fold change vs veh, TMA16 / RFU, RWDD3 / Fold change vs veh, RWDD3 / RFU, BCAT1 / Fold change vs veh, BCAT1 / RFU, EDEM3 / Fold change vs veh, EDEM3 / RFU, TMEM33 / Fold change vs veh, TMEM33 / RFU, WDR75 / Fold change vs veh, WDR75 / RFU, AHCTF1 / Fold change vs veh, AHCTF1 / RFU, TFRC / Fold change vs veh, TFRC / RFU, ZDHHC17 / Fold change vs veh, ZDHHC17 / RFU, NOM1 / Fold change vs veh, NOM1 / RFU, ARL8B / Fold change vs veh, ARL8B / RFU, ZBTB11 / Fold change vs veh, ZBTB11 / RFU, TAMM41 / Fold change vs veh, TAMM41 / RFU, KIAA1704 /// LOC100996395 / Fold change vs veh, KIAA1704 /// LOC100996395 / RFU, ING1 / Fold change vs veh, ING1 / RFU, TRMT61B / Fold change vs veh, TRMT61B / RFU, FUBP3 / Fold change vs veh, FUBP3 / RFU, TP53 / Fold change vs veh, TP53 / RFU, TNKS2 / Fold change vs veh, TNKS2 / RFU, ZFP14 / Fold change vs veh, ZFP14 / RFU, ACTR2 / Fold change vs veh, ACTR2 / RFU, PPP3R1 / Fold change vs veh, PPP3R1 / RFU, PIK3R1 / Fold change vs veh, PIK3R1 / RFU, HNRNPA1 / Fold change vs veh, HNRNPA1 / RFU, RNF170 / Fold change vs veh, RNF170 / RFU, ZNF28 / Fold change vs veh, ZNF28 / RFU, RNGTT / Fold change vs veh, RNGTT / RFU, OGT / Fold change vs veh, OGT / RFU, BRD1 / Fold change vs veh, BRD1 / RFU, MARS / Fold change vs veh, MARS / RFU, ZNF655 / Fold change vs veh, ZNF655 / RFU, FAHD1 / Fold change vs veh, FAHD1 / RFU, BDP1 / Fold change vs veh, BDP1 / RFU, LRRCC1 / Fold change vs veh, LRRCC1 / RFU, ARID1A / Fold change vs veh, ARID1A / RFU, ZNF146 / Fold change vs veh, ZNF146 / RFU, ZNF330 / Fold change vs veh, ZNF330 / RFU, GPN3 / Fold change vs veh, GPN3 / RFU, C9orf123 / Fold change vs veh, C9orf123 / RFU, N4BP2L2 / Fold change vs veh, N4BP2L2 / RFU, ARFIP1 / Fold change vs veh, ARFIP1 / RFU, FAM179B / Fold change vs veh, FAM179B / RFU, BCL10 / Fold change vs veh, BCL10 / RFU, UHRF1BP1L / Fold change vs veh, UHRF1BP1L / RFU, BET1 / Fold change vs veh, BET1 / RFU, CNOT2 / Fold change vs veh, CNOT2 / RFU, ZNF268 / Fold change vs veh, ZNF268 / Fold change vs veh, ZNF507 / RFU, DGCR2 / Fold change vs veh, DGCR2 / RFU, WDSUB1 / Fold change vs veh, WDSUB1 / Fold change vs veh, HSP90B1 /// MIR3652 / RFU, ADSS / Fold change vs veh, ADSS / RFU, GK / Fold change vs veh, GK / RFU, ZNF148 / Fold change vs veh, ZNF148 / RFU, TAF9 / Fold change vs veh, TAF9 / RFU, SLC1A5 / Fold change vs veh, SLC1A5 / RFU, SLMO2 / Fold change vs veh, SLMO2 / RFU, ABCC4 / Fold change vs veh, ABCC4 / RFU, LOC101060439 /// RAP1B / Fold change vs veh, LOC101060439 /// RAP1B / RFU, RFX7 / Fold change vs veh, RFX7 / RFU, GTPBP10 / Fold change vs veh, GTPBP10 / RFU, CNEP1R1 / Fold change vs veh, CNEP1R1 / RFU, BIVM-ERCC5 /// ERCC5 / Fold change vs veh, BIVM-ERCC5 /// ERCC5 / RFU, ILF3 / Fold change vs veh, ILF3 / RFU 11762660_at / Fold change /veh 11762660_at / RFU VCAN (11757783_s_at) / Fold change /veh VCAN (11757783_s_at) / RFU DDX43 (11728927_at) / Fold change /veh DDX43 (11728927_at) / RFU KRT8 (11758188_x_at) / Fold change /veh KRT8 (11758188_x_at) / RFU NKD1 (11759106_at) / Fold change /veh NKD1 (11759106_at) / RFU SRD5A1 (11742802_a_at) / Fold change /veh SRD5A1 (11742802_a_at) / RFU TPSAB1 /// TPSB2 (11721975_s_at) / Fold change /veh TPSAB1 /// TPSB2 (11721975_s_at) / RFU GSTM3 (11746129_a_at) / Fold change /veh GSTM3 (11746129_a_at) / RFU IL23R (11737362_x_at) / Fold change /veh IL23R (11737362_x_at) / RFU TMEM51 (11727254_a_at) / Fold change /veh TMEM51 (11727254_a_at) / RFU PIWIL2 (11732686_x_at) / Fold change /veh PIWIL2 (11732686_x_at) / RFU ORM1 (11744905_x_at) / Fold change /veh ORM1 (11744905_x_at) / RFU CCDC152 (11743942_at) / Fold change /veh CCDC152 (11743942_at) / RFU ECM1 (11717891_a_at) / Fold change /veh ECM1 (11717891_a_at) / RFU IL23R (11748794_a_at) / Fold change /veh IL23R (11748794_a_at) / RFU TNFAIP8L3 (11732012_x_at) / Fold change /veh TNFAIP8L3 (11732012_x_at) / RFU MBOAT4 (11741988_at) / Fold change /veh MBOAT4 (11741988_at) / RFU 11764193_at / Fold change /veh 11764193_at / RFU TMEM53 (11763286_at) / Fold change /veh TMEM53 (11763286_at) / RFU MAGEB2 (11727129_at) / Fold change /veh MAGEB2 (11727129_at) / RFU TMEM200A (11744735_a_at) / Fold change /veh TMEM200A (11744735_a_at) / RFU CCDC152 (11751479_a_at) / Fold change /veh CCDC152 (11751479_a_at) / RFU FAM211A (11726209_a_at) / Fold change /veh FAM211A (11726209_a_at) / RFU RGS16 (11746705_a_at) / Fold change /veh RGS16 (11746705_a_at) / RFU VCAN (11755009_s_at) / Fold change /veh VCAN (11755009_s_at) / RFU RHOB (11743442_s_at) / Fold change /veh RHOB (11743442_s_at) / RFU RGS16 (11720943_a_at) / Fold change /veh RGS16 (11720943_a_at) / RFU RGS16 (11720944_at) / Fold change /veh RGS16 (11720944_at) / RFU, VPS4B / Fold change vs veh, VPS4B / RFU, CREB1 / Fold change vs veh, CREB1 / RFU, DNAJC13 / Fold change vs veh, DNAJC13 / RFU, GNAQ / Fold change vs veh, GNAQ / RFU, CDK5R1 / Fold change vs veh, CDK5R1 / RFU, ZRANB3 / Fold change vs veh, ZRANB3 / RFU, CUL4A / Fold change vs veh, CUL4A / RFU, CCNY / Fold change vs veh, CCNY / RFU, UFL1 / Fold change vs veh, UFL1 / RFU, COG3 / Fold change vs veh, COG3 / RFU, DIAPH2 / Fold change vs veh, DIAPH2 / RFU, SKA2 / Fold change vs veh, SKA2 / RFU, AFF3 / Fold change vs veh, AFF3 / RFU, LMF1 / Fold change vs veh, LMF1 / RFU, IPO11 / Fold change vs veh, IPO11 / RFU, DFFB / Fold change vs veh, DFFB / RFU, FOXP1 / Fold change vs veh, FOXP1 / RFU, CARD8 / Fold change vs veh, CARD8 / RFU, STRN3 / Fold change vs veh, STRN3 / RFU, ADK / Fold change vs veh, ADK / RFU, RASSF2 / Fold change vs veh, RASSF2 / RFU, WIPF1 / Fold change vs veh, WIPF1 / RFU, LARP1B / Fold change vs veh, LARP1B / RFU, RASA1 / Fold change vs veh, RASA1 / RFU, RB1 / Fold change vs veh, RB1 / RFU, PPFIA1 / Fold change vs veh, PPFIA1 / RFU, MAT2A / Fold change vs veh, MAT2A / RFU, CCT5 / Fold change vs veh, CCT5 / RFU, WDR92 / Fold change vs veh, WDR92 / RFU, CUX1 / Fold change vs veh, CUX1 / RFU, TTC7A / Fold change vs veh, TTC7A / RFU, TMEM135 / Fold change vs veh, TMEM135 / RFU, DEPTOR / Fold change vs veh, DEPTOR / RFU, CPM / Fold change vs veh, CPM / RFU, DNAJB6 / Fold change vs veh, DNAJB6 / RFU, CACNA2D3 / Fold change vs veh, CACNA2D3 / RFU, DTX4 / Fold change vs veh, DTX4 / RFU, TFCP2 / Fold change vs veh, TFCP2 / RFU, GMCL1 /// GMCL1P1 / Fold change vs veh, GMCL1 /// GMCL1P1 / RFU, AEBP2 / Fold change vs veh, AEBP2 / RFU, SNHG1 /// SNORD22 /// SNORD25 /// SNORD26 /// SNORD27 /// SNORD28 /// SNORD29 /// SNORD31 / Fold change vs veh, SNHG1 /// SNORD22 /// SNORD25 /// SNORD26 /// SNORD27 /// SNORD28 /// SNORD29 /// SNORD31 / Fold change (Aza/veh), C12orf56 (ProbeSet 11735607_a_at) / Fold change (ACY-1035/veh), C12orf56 (ProbeSet 11735607_a_at) / Fold change (Aza/veh), FGFR1OP (ProbeSet 11751329_s_at) / Fold change (ACY-1035/veh), FGFR1OP (ProbeSet 11751329_s_at) / Fold change (Aza/veh), VPS36 (ProbeSet 11739960_a_at) / Fold change (ACY-1035/veh), VPS36 (ProbeSet 11739960_a_at) / RFU SYPL1 (11715823_x_at) / Fold change /veh SYPL1 (11715823_x_at) / RFU IGFBP7 (11715501_s_at) / Fold change /veh IGFBP7 (11715501_s_at) / RFU REEP3 (11722064_at) / Fold change /veh REEP3 (11722064_at) / RFU IGLL1 (11728026_x_at) / Fold change /veh IGLL1 (11728026_x_at): dose or concentration left out as unconfirmed
Conditions: MV-4-11 cells, 48 hours

## Nc1ncn([C@@H]2O[C@H](CO)[C@@H](O)[C@H]2O)c(=O)n1 [azacitidine]
  RFU CAMK2N1 (11719241_x_at): 56.90 RFU
